From PubChem BioAssay AID1208 (EPA DSSTox, 2008) come the findings set out here.

Calls of active or inactive are those of the source.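 Rule for the calls: active = at least one rat sex group has a carcinogenic potency value and tumor site recorded; inconclusive = only rat studies were judged inadequate by the national testing program; inactive = no potency or tumor site, with negative rat experiments.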

This data set has as its system rat chronic carcinogenicity bioassay, TD50. The data set can be described thus: DSSTox (CPDBAS) Carcinogenic Potency Database Summary Rat Bioassay Results. The settings on record: for Potency: stronger effect = lower value. In short, it runs like this:
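Chronic long-term rat cancer bioassays from literature and NCI/NTP, taking the most positive result per sex. TD50 in mmol converted to a 1–100 Activity Score from log10(1/TD50). Mixtures lacking TD50 scored 50.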

Setting [1] is: TD50_Rat_Note: no positive results, TargetSites_Rat_Female: no positive results.
Setting [2] is: TD50_Rat_Note: no positive results.
Setting [3] is: TD50_Rat_Note: TD50 is harmonic mean of more than one positive test, TargetSites_Rat_Female: mammary gland.
Where [4] appears, read: TargetSites_Rat_Female: no positive results.

Take `Cc1cnc2ccc3c(nc(N)n3C)c2n1`: the Potency (TD50_Rat_Note: TD50 is harmonic mean of more than one positive test, TargetSites_Rat_Female: clitoral gland, ear Zymbals gland, liver) is 1.66 mg/kg/day.
For the compound `C=CC(=C)Cl`, the Potency (TD50_Rat_Note: TD50 is harmonic mean of more than one positive test, TargetSites_Rat_Female: kidney, mammary gland, oral cavity, thyroid gland) is 12.5 mg/kg/day. The outcome under setting [1] was “inactive; no positive results”.
Turning to `CC(O)C(=O)O` (stereo not given), the outcome under setting [1] is “inactive; no positive results”.
For `CN1C(=O)OC(C)(C)C1=O`, the outcome under setting [2] is “inactive; no positive results”.
`C=CC(=C)C`: the Potency under setting [3] was 313 mg/kg/day.
On to `CN[C@H]1CCc2cc(OC)c(OC)c(OC)c2-c2ccc(OC)c(=O)cc21`, for which the outcome under setting [2] is “inactive; no positive results”.
For the compound `COc1cc(OC)c2c3c(c(=O)oc2c1)CCC3=O`, the outcome under setting [2] was “inactive; no positive results”.
As for `C=C(Cl)CSC(=S)N(CC)CC`, the Potency under setting [3] was 26.1 mg/kg/day.
Turning to `C=CC1CC=CCC1` (stereo not given), the outcome (TD50_Rat_Note: only experiment is NCI/NTP bioassay inadequate, TargetSites_Rat_Female: NTP bioassay inadequate) is given as “ntp bioassay inadequate”.
For the compound `COc1cc(/C=C/C(=O)OCCc2ccccc2)ccc1O`, under setting [2], the outcome was “inactive; no positive results”.
With `C/C=C/c1ccc(OC)cc1`, the outcome under setting [1] is “inactive; no positive results”.
With `CCCCCCCCCCCCCCN(C)N=O`, the Potency (TD50_Rat_Note: harmonic mean of TD50 includes a value for upper 99% confidence limit from study with 100% tumor incidence but no lifeta) was 1.65 mg/kg/day.
For `N#CSCc1ccccc1`, the outcome under setting [2] was “inactive; no positive results”.
For `NC(=S)NNC=O`, the result under setting [1] was inactive.
Consider `C=CC(=O)OCC`, for which the Potency (TD50_Rat_Note: TD50 is harmonic mean of more than one positive test, TargetSites_Rat_Female: stomach) was 119 mg/kg/day.
In the case of `O=P(O)(OCC(Br)CBr)OCC(Br)CBr` (stereo not given), the Potency (TD50_Rat_Note: TD50 is harmonic mean of more than one positive test, TargetSites_Rat_Female: esophagus, liver, small intestine, stomach) was 32 mg/kg/day.
Turning to `CCN=c1cc2oc3cc(NCC)c(C)cc3c(-c3ccccc3C(=O)OCC)c-2cc1C`, under setting [1], the outcome was “inactive; no positive results”.
On the same count and under the same terms, next, `COc1ccc2c3c1O[C@H]1[C@@H](O)C=C[C@H]4[C@@H](C2)N(C)CC[C@@]341`: “inactive; no positive results”; `Cn1c(=O)c2[nH]cnc2n(C)c1=O`: “inactive; no positive results”.
As to `CCCC[N+](=O)[O-]`, the outcome under setting [2] was “inactive; no positive results”.
In the case of `C=CCOc1ccccc1OCC(O)CNC(C)C` (stereo not given), the outcome under setting [1] was “inactive; no positive results”.
Same read-out and setting: the same measure for `CNC(=O)CSP(=S)(OC)OC`: “inactive; no positive results”.
The same measure, in the same setting: next, `Brc1cc(-c2ccc(Br)c(Br)c2Br)cc(Br)c1Br`: “inactive”; `CC(C)(OCc1ccc(-c2ccc(Cl)cc2)cc1)C(=O)O`: “inactive; no positive results”.
Turning to `CC(I)C1OCC(CO)O1` (stereo not given), under setting [4], the Potency was 101 mg/kg/day.
Take `CC(=O)N[C@@H](CS)C(=O)O`: under setting [2], the outcome is “inactive; no positive results”.
Consider `CN(N=O)c1ccccc1`, for which the Potency (TD50_Rat_Note: TD50 is harmonic mean of more than one positive test, harmonic mean of TD50 includes a value for upper 99% confidence li, TargetSites_Rat_Female: esophagus) is 0.142 mg/kg/day.
As to `O=NN(c1ccccc1)c1ccccc1`, the Potency (TD50_Rat_Note: TD50 is harmonic mean of more than one positive test, TargetSites_Rat_Female: urinary bladder) was 167 mg/kg/day.
In the case of `Cc1cnc(NC(=O)C2=C(O)c3ccccc3S(=O)(=O)N2C)s1`, the outcome under setting [1] is “inactive; no positive results”.
As to `CN(C)c1ccc(N=NS(=O)(=O)O)cc1`, under setting [1], the outcome was “inactive; no positive results”.
On to `Nc1cccc2c(N)cccc12`, for which the Potency (TargetSites_Rat_Female: clitoral gland, uterus) is 69.6 mg/kg/day.
For `Cc1ccc([N+](=O)[O-])cc1N`, the outcome under setting [1] was “inactive; no positive results”.
Still for that read-out and setting: the same measure for `CCCCCCCC/C=C\CCCCCCCC(=O)O`: “inactive; no positive results”.
For `[O-]/[N+](=N\O)c1ccccc1`, for the setting “TD50_Rat_Note: TD50 is harmonic mean of more than one positive test, TargetSites_Rat_Female: ear Zymbals gland, liver, stomach, vascular system”, the Potency was 8.35 mg/kg/day.
Take `O=C1c2ccccc2-c2ccc3c4c(ccc1c24)-c1ccccc1C3=O`: under setting [1], the outcome is “inactive; no positive results”.
Same read-out and setting: the same measure for `c1ccc(Nc2ccc(Nc3ccccc3)cc2)cc1`: “inactive; no positive results”.
For `Nc1ccc(O)c([N+](=O)[O-])c1`, the Potency under setting [4] was 309 mg/kg/day.
As for `Cc1cc(C)nc(-c2ccc([N+](=O)[O-])o2)n1`, where the note is “TD50_Rat_Note: harmonic mean of TD50 includes a value for upper 99% confidence limit from study with 100% tumor incidence but no lifeta, TargetSites_Rat_Female: kidney, mammary gland, small intestine, stomach, vascular system”, the Potency was 1.39 mg/kg/day.
Take `CN(N=O)c1ccc([N+](=O)[O-])cc1`: the outcome under setting [2] was “inactive; no positive results”.
Regarding `ClC1C2(Cl)C3C4C5OC5C5C4C1(Cl)C(Cl)(C53)C2(Cl)Cl` (stereo not given), the outcome under setting [1] was “inactive; no positive results”.
On to `CCOP(=S)(OCC)SC1OCCOC1SP(=S)(OCC)OCC` (stereo not given), for which the outcome under setting [1] is “inactive; no positive results”.
With `CCC1CO1` (stereo not given), under setting [4], the Potency was 220 mg/kg/day.
Regarding `Nc1ccc(N)cc1`, the outcome under setting [1] was “inactive; no positive results”.
Still for that read-out and setting: the same measure for `CN(N=O)c1ccncc1`: “inactive”.
